Results on 1 molecule are retold here after paper PMC12716025, “Plectranthus‐derived Abietanes as Protein Kinase C‐δ Activators: In Silico Design, Human Serum Albumin Interaction, and Stability Evaluation” (Chemistry & Biodiversity, 2025).

The term Kd denotes the constant that tells how readily two partners part at equilibrium.

The target in the assay is T1, Human serum albumin (HSA) (Homo sapiens, UniProt P02768).
T1 construct: gene ALB; Essentially fatty acid-free HSA, type A1887 (Sigma-Aldrich)
T1 sequence (P02768 25-609): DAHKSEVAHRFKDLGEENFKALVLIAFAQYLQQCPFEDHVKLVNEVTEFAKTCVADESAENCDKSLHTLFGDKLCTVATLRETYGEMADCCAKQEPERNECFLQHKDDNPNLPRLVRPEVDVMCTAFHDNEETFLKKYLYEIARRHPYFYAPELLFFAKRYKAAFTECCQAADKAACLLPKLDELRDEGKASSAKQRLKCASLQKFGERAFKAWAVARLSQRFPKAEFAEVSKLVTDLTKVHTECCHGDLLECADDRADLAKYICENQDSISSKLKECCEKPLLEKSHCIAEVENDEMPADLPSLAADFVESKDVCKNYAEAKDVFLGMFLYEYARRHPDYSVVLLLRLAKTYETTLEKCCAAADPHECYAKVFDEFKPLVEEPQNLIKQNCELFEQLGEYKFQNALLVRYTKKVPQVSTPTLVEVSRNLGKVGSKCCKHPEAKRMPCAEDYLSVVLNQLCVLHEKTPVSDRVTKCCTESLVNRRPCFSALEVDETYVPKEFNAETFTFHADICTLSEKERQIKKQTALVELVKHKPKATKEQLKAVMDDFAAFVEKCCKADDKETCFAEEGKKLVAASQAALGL
As to the kind of experiment: intrinsic tryptophan fluorescence quenching (binding constant Ka, […]°C), synchronous fluorescence, thermal shift (Tm +[…]°C).

Turning to `CC(=O)O[C@H]1C2=C(C(=O)C(O)=C(C(C)C)C2=O)[C@@]2(C)CCCC(C)(C)[C@@H]2[C@@H]1O` [compound 1, 7α-acetoxy-6β-hydroxyroyleanone], the Kd was 15.4 µM.
